According to patent US10369138B2, “Monobactam organic compounds for the treatment of bacterial infections” (Novartis AG, priority 2014, dated 2019):
Converted amounts (≈) assume the structure as drawn.

Key:
Format in all cases: cell-based
[1] = system: E. coli NB27273-CDY0033 (KPC2); assay: MIC by broth microdilution, isogenic E. coli strain expressing KPC2; settings: Escherichia coli, read-out: Strain 2 MIC
Experimental: (§1) Bacterial isolates were cultivated from −70° C. frozen stocks by two consecutive overnight passages at 35° C. in ambient air on 5% blood agar (Remel, Lenexa, Kans.). Quality control and P. aeruginosa ATCC 27853) is from the American Type Culture Collection (ATCC; Rockville, Md.) and PAO1 was received from Dr. K. Poole.
(§2) Strain NB27273 (BW25113 pspB::Km^r) was obtained from the Keio transposon insertion collection. The strain has the pspB gene replaced by a kanamycin resistance marker (BW25113 pspB::Km^r). This strain was cured of the transposon in pspB via FLP recombinase using published methodology. The resulting strain, BW25113 pspB, was used as a host for multicopy vectors expressing key β-lactamases. Multicopy plasmids directing constitutive expression of β-lactamases were established as follows: Synthetic, codon optimized genes encoding E. coli KPC2 and SHV12 β-lactamases were made by DNA2.0 (Palo Alto, Calif.). Each of the synthetic fragments were designed to contain NotI and NcoI restriction sites at their termini, allowing ligation into a NotI/NcoI digested pET28a(+) derivative for protein expression. […] The codon optimized nucleotide sequences and relevant primer recognition information is shown below:
(§3) The PCR products were then digested with XhoI and EcoRI and ligated into similarly digested plasmid pAH63-pstS(BlaP). Plasmid pAH63-pstS(BlaP) is a derivative of plasmid pAH63 (J Bacteriol: 183(21): 6384-6393) made by cloning the TEM-1 (bla) promoter and signal peptide encoding region from plasmid pBAD (J Bacteriol. 1995 July 177(14):4121-30) into plasmid pAH63. This fragment was PCR amplified from pBAD using primer pair E192 (ttcaCTGCAGtgaacgttgcgaagcaacggC) (SEQ ID NO:13) and E194 (TCGAggatcctcgagagcaaaaacaggaaggcaaaatgccg) (SEQ ID NO:14), digested with PstI and BamHI and inserted into similarly digested plasmid pAH63. Therefore, expression of β-lactamases from pAH63-pstS(BlaP) based constructs is constitutive and the signal sequence is provided to direct these proteins to the periplasm. […] To accomplish this, the inserts encompassing the β-lactamase genes, with the associated TEM promoter and signal sequences, were PCR amplified from their corresponding vectors using primer E269 (ccgTCTAGAcggatggcctttttgcgtttc) (SEQ ID NO:15) and E202 (aatcGAATTCttactgaccattaacgcccaagc) (SEQ ID NO:16) for the KPC2 construct and E204 (aatcGAATTCttaacgctgccagtgctcaatc) (SEQ ID NO:17) for the SHV12 construct. These fragments were then digested with XbaI and EcoRI, and each was inserted into pBAD18-kan that had been digested with the same enzymes to generate a pair of multicopy vectors expressing KPC2 and SHV12 respectively. These vectors were transformed into BW25113 pspB to generate strains NB27273-CDY0033 (expressing KPC2) and NB27273-CDY0030 (expressing SHV12). The pBAD18-kan vector also contains the TEM promoter region and signal sequence, (but lacks any intact β-lactamase genes) and was transformed into BW25113 pspB using standard protocols to generate the control strain NB27273-CDY0026. […] Susceptibility Testing
(§4) Minimal Inhibitory Concentrations (MICs) were determined by the broth microdilution method in accordance with Clinical and Laboratories Institute (CLSI) guidelines. In brief, fresh overnight bacterial cultures were suspended in sterile saline, and adjusted to a 0.5 McFarland turbidity standard. Bacterial suspensions were then diluted in cation adjusted Mueller-Hinton Broth (MHB II; BBL) to yield a final inoculum of approximately 5×10^5 colony-forming units (CFU)/mL. A master plate of antibiotics was prepared at a concentration equivalent to hundred-fold the highest desired final concentration in 100% dimethyl sulfoxide (DMSO). The master antibiotic plate was then diluted by serial twofold dilution with a multichannel pipette. The resulting dilution series of compounds were diluted 1:10 with sterile water leading to a 10% DMSO final concentration.

[2] = system: E. coli NB27273-CDY0030 (SHV12); assay: MIC by broth microdilution, isogenic E. coli strain expressing SHV12; settings: Escherichia coli, read-out: Strain 3 MIC
Experimental: as §1, §2, §3, §4

[3] = system: E. coli NB27273-CDY0026 (parent); assay: MIC by broth microdilution, isogenic E. coli parent strain; settings: Escherichia coli, read-out: Strain 1 MIC
Experimental: as §1, §2, §3, §4

[4] = system: E. coli strain 25922; assay: MIC by broth microdilution, E. coli strain 25922; settings: Escherichia coli, 25922, E. coli strain 25922; read-out: Ec 25922 (MIC)
Outline: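 CLSI broth microdilution in cation-adjusted Mueller-Hinton broth, inoculum about 5×10^5 CFU/mL, 10% DMSO from the diluted series, 20 h at 35-37° C. MIC is the lowest concentration preventing visible growth, read by eye and at 600 nm.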

[5] = system: E. coli containing KPC-2; assay: MIC by broth microdilution, E. coli containing KPC-2 (Ec KPC2 Iso); settings: Escherichia coli, read-out: Ec KPC2 Iso (MIC), E. coli containing KPC-2 (carbapenemase from Klebsiella pneumoniae)
Outline: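 Host E. coli BW25113 pspB carrying multicopy pBAD18-kan plasmid with constitutive TEM-promoter KPC-2 expression (periplasmic signal sequence); broth microdilution per CLSI in cation-adjusted Mueller-Hinton broth, inoculum ~5×10^5 CFU/mL, compounds twofold serially diluted from DMSO masters (10% DMSO in dilution series added).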

SMILES: CC(C)(O/N=C(\C(=O)N[C@@H]1C(=O)N(S(=O)(=O)O)[C@@H]1CN1CCCC1=O)c1csc(N)n1)C(=O)O [Example 1, 2-(((Z)-(1-(2-aminothiazol-4-yl)-2-oxo-2-(((3S,4R)-2-oxo-4-((2-oxopyrrolidin-1-yl)methyl)-1-sulfoazetidin-3-yl)amino)ethylidene)amino)oxy)-2-methylpropanoic acid]
- MIC [1]: 2 µg/mL (≈ 3.86 µM)
- MIC [2]: 2 µg/mL (≈ 3.86 µM)
- MIC [3]: 1 µg/mL (≈ 1.93 µM)
- MIC [4]: 16 µg/mL (≈ 30.9 µM)
- MIC [5]: 2 µg/mL (≈ 3.86 µM)

SMILES: CC(C)(O/N=C(\C(=O)N[C@@H]1C(=O)N(S(=O)(=O)O)[C@@H]1Cn1nnc(CN)n1)c1csc(N)n1)C(=O)O [Example 4, 2-(((Z)-(2-(((2R,3S)-2-((5-(aminomethyl)-2H-tetrazol-2-yl)methyl)-4-oxo-1-sulfoazetidin-3-yl)amino)-1-(2-aminothiazol-4-yl)-2-oxoethylidene)amino)oxy)-2-methylpropanoic acid]
- MIC [1]: 8 µg/mL (≈ 15 µM)
- MIC [2]: 2 µg/mL (≈ 3.76 µM)
- MIC [3]: 0.5 µg/mL (≈ 0.939 µM)
- MIC [4]: 1 µg/mL (≈ 1.88 µM)
- MIC [5]: 8 µg/mL (≈ 15 µM)

SMILES: Nc1nc(/C(=N/OC2(C(=O)O)CC2)C(=O)N[C@@H]2C(=O)N(S(=O)(=O)O)[C@@H]2CN2CCOC2=O)cs1 [Example 22, 1-(((Z)-(1-(2-aminothiazol-4-yl)-2-oxo-2-(((3S,4R)-2-oxo-4-((2-oxooxazolidin-3-yl)methyl)-1-sulfoazetidin-3-yl)amino)ethylidene)amino)oxy)cyclopropanecarboxylic acid]
- MIC [1]: 0.125 µg/mL (≈ 0.241 µM)
- MIC [2]: 0.5 µg/mL (≈ 0.964 µM)
- MIC [3]: ≤ 0.06 µg/mL
- MIC [4]: 0.25 µg/mL (≈ 0.482 µM)
- MIC [5]: 0.125 µg/mL (≈ 0.241 µM)

SMILES: N=C(N)NCc1cn(C[C@@H]2[C@H](NC(=O)/C(=N\OC3(C(=O)O)CC3)c3csc(N)n3)C(=O)N2S(=O)(=O)O)nn1 [Example 28, 1-(((Z)-(1-(2-aminothiazol-4-yl)-2-(((2R,3S)-2-((4-(guanidinomethyl)-1H-1,2,3-triazol-1-yl)methyl)-4-oxo-1-sulfoazetidin-3-yl)amino)-2-oxoethylidene)amino)oxy)-cyclopropanecarboxylic acid]
- MIC [1]: ≤ 0.06 µg/mL
- MIC [2]: 0.5 µg/mL (≈ 0.875 µM)
- MIC [3]: ≤ 0.06 µg/mL

SMILES: N=C(NC1CCNCC1)c1ccc(OC[C@H](O/N=C(\C(=O)N[C@@H]2C(=O)N(S(=O)(=O)O)[C@@H]2Cn2cncn2)c2csc(N)n2)C(=O)O)cc1 [Example 31, (S)-2-(((Z)-(2-(((2R,3S)-2-((1H-1,2,4-triazol-1-yl)methyl)-4-oxo-1-sulfoazetidin-3-yl)amino)-1-(2-aminothiazol-4-yl)-2-oxoethylidene)amino)oxy)-3-(4-(N-(piperidin-4-yl)carbamimidoyl)-phenoxy)propanoic acid]
- MIC [1]: 0.25 µg/mL (≈ 0.354 µM)
- MIC [2]: 0.5 µg/mL (≈ 0.708 µM)
- MIC [3]: 0.125 µg/mL (≈ 0.177 µM)
- MIC [4]: 0.25 µg/mL (≈ 0.354 µM)
- MIC [5]: 0.25 µg/mL (≈ 0.354 µM)

SMILES: CN(Cc1cnn(C[C@@H]2[C@H](NC(=O)/C(=N\OC3(C(=O)O)CC3)c3csc(N)n3)C(=O)N2S(=O)(=O)O)n1)C(=N)NCCCN [Example 148, 1-(((Z)-(2-(((2R,3S)-2-((4-((3-(3-aminopropyl)-1-methylguanidino)methyl)-2H-1,2,3-triazol-2-yl)methyl)-4-oxo-1-sulfoazetidin-3-yl)amino)-1-(2-aminothiazol-4-yl)-2-oxoethylidene)amino)oxy)cyclopropanecarboxylic acid]
- MIC [4]: 1 µg/mL (≈ 1.56 µM)
- MIC [5]: 1 µg/mL (≈ 1.56 µM)

SMILES: NCC1CN(C(=O)OCc2cnn(C[C@@H]3[C@H](NC(=O)/C(=N\OC4(C(=O)O)CC4)c4csc(N)n4)C(=O)N3S(=O)(=O)O)n2)C1 [Example 149, 1-(((Z)-(2-(((2R,3S)-2-((4-(((3-(aminomethyl)azetidine-1-carbonyl)oxy)methyl)-2H-1,2,3-triazol-2-yl)methyl)-4-oxo-1-sulfoazetidin-3-yl)amino)-1-(2-aminothiazol-4-yl)-2-oxoethylidene)amino)oxy)cyclopropanecarboxylic acid]
- MIC [4]: 0.5 µg/mL (≈ 0.778 µM)
- MIC [5]: 0.5 µg/mL (≈ 0.778 µM)

SMILES: N=C(NCc1cnn(C[C@@H]2[C@H](NC(=O)/C(=N\OC3(C(=O)O)CC3)c3csc(N)n3)C(=O)N2S(=O)(=O)O)n1)N1CC[C@H](N)C1 [Example 150, 1-(((Z)-(2-(((2R,3S)-2-((4-(((S)-3-aminopyrrolidine-1-carboximidamido)methyl)-2H-1,2,3-triazol-2-yl)methyl)-4-oxo-1-sulfoazetidin-3-yl)amino)-1-(2-aminothiazol-4-yl)-2-oxoethylidene)amino)oxy)cyclopropanecarboxylic acid]
- MIC [4]: 1 µg/mL (≈ 1.56 µM)
- MIC [5]: 0.5 µg/mL (≈ 0.78 µM)

SMILES: CC(NCCCN)c1cnn(C[C@@H]2[C@H](NC(=O)/C(=N\OC3(C(=O)O)CC3)c3csc(N)n3)C(=O)N2S(=O)(=O)O)n1 (stereo partly drawn) [Example 151, 1-(((Z)-(2-(((2R,3S)-2-((4-(1-((3-aminopropyl)amino)ethyl)-2H-1,2,3-triazol-2-yl)methyl)-4-oxo-1-sulfoazetidin-3-yl)amino)-1-(2-aminothiazol-4-yl)-2-oxoethylidene)amino)oxy)cyclopropanecarboxylic acid]
- MIC [4]: 0.5 µg/mL (≈ 0.832 µM)
- MIC [5]: 0.5 µg/mL (≈ 0.832 µM)

SMILES: NCCS(=O)(=O)Cc1cnn(C[C@@H]2[C@H](NC(=O)/C(=N\OC3(C(=O)O)CC3)c3csc(N)n3)C(=O)N2S(=O)(=O)O)n1 [Example 152, 1-(((Z)-(2-(((2R,3S)-2-((4-(((2-aminoethyl)sulfonyl)methyl)-2H-1,2,3-triazol-2-yl)methyl)-4-oxo-1-sulfoazetidin-3-yl)amino)-1-(2-aminothiazol-4-yl)-2-oxoethylidene)amino)oxy)cyclopropanecarboxylic acid]
- MIC [4]: 0.5 µg/mL (≈ 0.804 µM)
- MIC [5]: 0.5 µg/mL (≈ 0.804 µM)

SMILES: C[C@H]1[C@H](NC(=O)/C(=N\OC(C)(C)C(=O)O)c2csc(N)n2)C(=O)N1S(=O)(=O)O [compound 1, reference compound]
- MIC [2]: > 32 µg/mL

SMILES: NC(=O)OC[C@@H]1[C@H](NC(=O)/C(=N\OCC(=O)O)c2csc(N)n2)C(=O)N1S(=O)(=O)O [compound 2, reference compound]
- MIC [1]: 1 µg/mL (≈ 2.14 µM)
- MIC [2]: > 32 µg/mL
- MIC [3]: 0.125 µg/mL (≈ 0.268 µM)

SMILES: CC1(C)[C@H](NC(=O)/C(=N\OCc2cc(=O)c(O)cn2O)c2csc(N)n2)C(=O)N1OS(=O)(=O)O [compound 3, reference compound]
- MIC [1]: 0.5 µg/mL (≈ 0.964 µM)
- MIC [2]: > 32 µg/mL
- MIC [3]: 0.25 µg/mL (≈ 0.482 µM)

SMILES: CC1(C)[C@H](NC(=O)/C(=N\O[C@@H](COc2ccc(C(=N)NC3CCNCC3)cc2)C(=O)O)c2csc(N)n2)C(=O)N1OS(=O)(=O)O [compound 4, reference compound]
- MIC [1]: 0.25 µg/mL (≈ 0.374 µM)
- MIC [2]: 32 µg/mL (≈ 47.9 µM)
- MIC [3]: ≤ 0.06 µg/mL
